Measured values published in ChEMBL document CHEMBL1128941, “Peptidomimetic inhibitors of herpes virus ribonucleotide reductase. Correlation between herpes simplex and varicella zoster virus” (Bioorg Med Chem Lett, 1996).
pIC50: −log10 of the molar value. Starred links: 1 amine or outer side, 2 acyl side, 3 side chain; linkers in the order of their positions; H or OH if unused. Non-standard residues stand in square brackets, D forms with d. Residues, ends and D or L forms follow the SMILES beside them. *: point of attachment. Asp(3,3-(CH2)4) = N[C@H](C(=O)O)C1(C(=O)O)CCCC1; Dibenzylacetyl = O=C(C(Cc1ccccc1)Cc1ccccc1)*; Hydrocinnamoyl = O=C(CCc1ccccc1)*; tBuAla = CC(C)(C)C[C@H](N)C(=O)O; Tle = CC(C)(C)[C@H](N)C(=O)O; NMeV = CN[C@H](C(=O)O)C(C)C; NH(3-pentyl) = CCC(CC)N*; Pyrrolidide = C1CCN(*)C1; CO = O=C([*:1])[*:2]; X1 = CCC(CC)OC(=O)*; X2 = CCC(CC)CC(=O)*

Legend:
[1] = Inhibitory potency against Varicella zoster virus ribonucleotide reductase
[2] = Inhibitory potency against Herpes Simplex virus ribonucleotide reductase; design: species or system Herpes simplex virus (type 1 / strain 17)

CC(C)C[C@H](NC(=O)[C@H](CC(=O)O)NC(=O)[C@H](CC(N)=O)NC(=O)[C@@H](NC(=O)[C@@H](NC(=O)CCc1ccccc1)C(C)C)C(C)C)C(=O)O
pIC50 [1]: 4.82
pIC50 [2]: 5.40

CC(C)C[C@H](NC(=O)[C@H](CC(=O)O)NC(=O)[C@H](CC(N)=O)NC(=O)[C@@H](NC(=O)[C@@H](NC(=O)[C@H](C)NC(=O)CNC(=O)[C@H](C)NC(=O)[C@@H](N)Cc1ccc(O)cc1)C(C)C)C(C)C)C(=O)O
pIC50 [2]: 4.60

CCC(CC)NC(=O)C[C@H](C(=O)N[C@@H](CC(=O)N1CCCC1)C(=O)N[C@@H](CC(=O)O)C(=O)N[C@@H](CC(C)C)C(=O)O)C(C)(C)C
pIC50 [1]: 5.46
pIC50 [2]: 8.30

CC(C)C[C@H](NC(=O)[C@H](CC(=O)O)NC(=O)[C@H](CC(=O)N1CCCC1)NC(=O)[C@@H](NC(=O)[C@@H](NC(=O)C(Cc1ccccc1)Cc1ccccc1)C(C)C)C(C)C)C(=O)O (Dibenzylacetyl-VVD(Pyrrolidide)DL-OH)
pIC50 [1]: 7.66
pIC50 [2]: 9.15

CC(C)C[C@H](NC(=O)[C@H](CC(=O)O)NC(=O)[C@H](CC(=O)N1CCCC1)NC(=O)[C@@H](NC(=O)[C@@H](NC(=O)CCc1ccccc1)C(C)C)C(C)C)C(=O)O (Hydrocinnamoyl-VVD(Pyrrolidide)DL-OH)
pIC50 [1]: 6.23
pIC50 [2]: 7.62

CC(C)[C@H](NC(=O)CCc1ccccc1)C(=O)N[C@H](C(=O)N[C@@H](CC(=O)N1CCCC1)C(=O)N[C@@H](CC(=O)O)C(=O)N[C@@H](CC(C)(C)C)C(=O)O)C(C)C (Hydrocinnamoyl-VVD(Pyrrolidide)D[tBuAla]-OH)
pIC50 [1]: 5.01
pIC50 [2]: 8.30

CC(C)C[C@H](NC(=O)[C@@H](NC(=O)[C@H](CC(=O)N1CCCC1)NC(=O)[C@@H](NC(=O)[C@@H](NC(=O)CCc1ccccc1)C(C)C)C(C)C)C1(C(=O)O)CCCC1)C(=O)O (Hydrocinnamoyl-VVD(Pyrrolidide)[Asp(3,3-(CH2)4)]L-OH)
pIC50 [1]: 7.43
pIC50 [2]: 9.00

CC(C)C[C@H](NC(=O)[C@H](CC(=O)O)NC(=O)[C@H](CC(=O)N1CCCC1)NC(=O)[C@@H](NC(=O)[C@@H](NC(=O)CCc1ccccc1)C(C)C)C(C)(C)C)C(=O)O (Hydrocinnamoyl-V[Tle]D(Pyrrolidide)DL-OH)
pIC50 [1]: 6.91
pIC50 [2]: 8.40

CC(C)C[C@H](NC(=O)[C@H](CC(=O)O)NC(=O)[C@H](CC(=O)N1CCCC1)NC(=O)[C@@H](NC(=O)[C@H](C(C)C)N(C)C(=O)CCc1ccccc1)C(C)C)C(=O)O (Hydrocinnamoyl-[NMeV]VD(Pyrrolidide)DL-OH)
pIC50 [1]: 6.68
pIC50 [2]: 8.12

CCC(CC)OC(=O)N[C@H](C(=O)N[C@@H](CC(=O)N1CCCC1)C(=O)N[C@@H](CC(=O)O)C(=O)N[C@@H](CC(C)C)C(=O)O)C(C)(C)C (X1-[Tle]D(Pyrrolidide)DL-OH)
pIC50 [1]: 5.15
pIC50 [2]: 6.20

CCC(CC)CC(=O)N[C@H](C(=O)N[C@@H](CC(=O)N1CCCC1)C(=O)N[C@@H](CC(=O)O)C(=O)N[C@@H](CC(C)C)C(=O)O)C(C)(C)C (X2-[Tle]D(Pyrrolidide)DL-OH)
pIC50 [2]: 6.85

CCC(CC)NC(=O)N[C@H](C(=O)N[C@@H](CC(=O)N1CCCC1)C(=O)N[C@@H](CC(=O)O)C(=O)N[C@@H](CC(C)C)C(=O)O)C(C)(C)C ({NH(3-pentyl)-CO}-[Tle]D(Pyrrolidide)DL-OH)
pIC50 [1]: 6.03
pIC50 [2]: 8.52

H-YAGTVINDL-OH
pIC50 [2]: 5.10
